Laboratory results as given in the supplement of paper PMC11061612.

Legend:
Test in all cases: Bliss excess, mean over the matrix (fraction); higher = more synergy
[1] = system: H-EMC-SS (Chondrosarcoma)
How it was run: (§1)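 Cell lines grown in DMEM/F12 or RPMI with 10% FBS were plated in 1536-well plates and held 24 hours at 37°C, 5% CO2 before 72 hours of exposure to two-drug dose matrices, with DMSO typically at 0.2%. CellTiter-Glo 2.0 luminescence gave viability, which was converted to inhibition. Vehicle wells were set to 0 and blank wells to 1. Combination Emax is the second-highest inhibition in the matrix, and Bliss excess is the observed combination effect minus the expected EA + EB − EA·EB, where EA and EB are the single-agent effects.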

[2] = system: KYSE-150 (Esophageal Squamous Cell Carcinoma)
How it was run: as §1

EW-3 (Ewing's Sarcoma) = system: EW-3 (Ewing's Sarcoma)
How it was run: as §1

[3] = system: PF-382 (T-Lymphoblastic Leukemia)
How it was run: as §1

[4] = system: ASH-3 (Thyroid Gland Carcinoma)
How it was run: as §1

U-87-MG (Glioblastoma) = system: U-87-MG (Glioblastoma)
How it was run: as §1

RPMI-7951 (Melanoma) = system: RPMI-7951 (Melanoma)
How it was run: as §1

[5] = system: MFE-319 (Endometrial Carcinoma)
How it was run: as §1

[6] = system: HC-1 (Other Blood Carcinomas)
How it was run: as §1

[7] = system: BV-173 (Chronic Myelogenous Leukemia)
How it was run: as §1

[8] = system: NCI-H2347 (Lung Adenocarcinoma)
How it was run: as §1

IMR-5 (Neuroblastoma) = system: IMR-5 (Neuroblastoma)
How it was run: as §1

[9] = system: LOU-NH91 (Squamous Cell Lung Carcinoma)
How it was run: as §1

[10] = system: HSC-2 (Oral Cavity Carcinoma)
How it was run: as §1

SMILES | Bliss excess [1] | Bliss excess [2] | Bliss excess (EW-3 (Ewing's Sarcoma)) | Bliss excess [3] | Bliss excess [4] | Bliss excess (U-87-MG (Glioblastoma)) | Bliss excess (RPMI-7951 (Melanoma)) | Bliss excess [5] | Bliss excess [6] | Bliss excess [7] | Bliss excess [8] | Bliss excess (IMR-5 (Neuroblastoma)) | Bliss excess [9] | Bliss excess [10]
NC1(C(=O)N[C@@H](CCO)c2ccc(Cl)cc2)CCN(c2ncnc3[nH]ccc23)CC1 [Capivasertib] + CCN(CCO)CCCOc1ccc2c(Nc3cc(CC(=O)Nc4cccc(F)c4)[nH]n3)ncnc2c1 [AZD2811] (first compound max 10 µM, 7x7, partner max 1 µM) | -0.0105 | -0.011 | 0.0117 | -0.0497 | -0.0147 | 0.0175 | -0.0886 | -0.107 | -0.0564 | -0.031 | -0.0369 | -0.0144 | -0.0075 | 0.0572
NC1(C(=O)N[C@@H](CCO)c2ccc(Cl)cc2)CCN(c2ncnc3[nH]ccc23)CC1 [Capivasertib] + COc1nnc2ccc(N3CCC(c4ccc(OCCN5CCN(C)C(=O)[C@H]5C)cc4)CC3)nn12 [AZD5153] (first compound max 10 µM, 7x7, partner max 1 µM) | 0.0011 | 0.0618 | 0.0429 | 0.0451 | 0.0231 | 0.0526 | 0.0498 | 0.0499 | 0.0365 | -0.0607 | -0.033 | 0.0285 | -0.025 | 0.0456
NC1(C(=O)N[C@@H](CCO)c2ccc(Cl)cc2)CCN(c2ncnc3[nH]ccc23)CC1 [Capivasertib] + C[C@@H]1COCCN1C2=NC(=NC(=C2)C3(CC3)[S@](=N)(=O)C)C4=C5C=CNC5=NC=C4 [AZD6738] (first compound max 10 µM, 7x7, partner max 10 µM) | -0.0022 | -0.0545 | -0.0457 | -0.0059 | -0.0468 | 0.0169 | -0.0632 | -0.122 | -0.0166 | -0.0271 | -0.0218 | 0.019 | -0.0192 | -0.0096
NC1(C(=O)N[C@@H](CCO)c2ccc(Cl)cc2)CCN(c2ncnc3[nH]ccc23)CC1 [Capivasertib] + Cn1cnc2c(F)c(Nc3ccc(Br)cc3Cl)c(C(=O)NOCCO)cc21 [Selumetinib] (first compound max 10 µM, 7x7, partner max 10 µM) | 0.0635 | 0.0676 | -0.0091 | 0.0266 | 0.064 | -0.0316 | -0.0415 | 0.0088 | 0.0123 | 0.0219 | -0.0158 | 0.0034 | -0.0027 | 0.0675
Cc1nc(Nc2ncc(C(=O)Nc3c(C)cccc3Cl)s2)cc(N2CCN(CCO)CC2)n1 [Dasatinib] + CC(=O)Nc1cccc(-n2c(=O)n(C3CC3)c(=O)c3c(Nc4ccc(I)cc4F)n(C)c(=O)c(C)c32)c1 [Trametinib] (first compound max 2 µM, 7x7, partner max 1 µM) | 0.0331 | -0.035 | -0.0576 | 0.198 | 0.0994 | -0.0575 | -0.0745 | -0.108 | -0.0813 | -0.179 | 0.153 | -0.0059 | -0.0403 | -0.0238
COc1cc2ncnc(Nc3ccc(F)c(Cl)c3)c2cc1OCCCN1CCOCC1 [Gefitinib] + CC(C)n1c(=O)n(C)c2cnc3cc(F)c(-c4ccc(OCCCN5CCCCC5)nc4)cc3c21 [AZD1390] (first compound max 10 µM, 7x7, partner max 0.3 µM) | -0.0502 | -0.0834 | -0.0347 | -0.0668 | -0.0537 | -0.0771 | -0.0498 | -0.0805 | -0.127 | -0.0778 | -0.0771 | -0.0516 | -0.0195 | -0.0442
CS(=O)(=O)CCNCc1ccc(-c2ccc3ncnc(Nc4ccc(OCc5cccc(F)c5)c(Cl)c4)c3c2)o1 [Lapatinib] + C[C@@H](Oc1cc(-c2cnn(C3CCNCC3)c2)cnc1N)c1c(Cl)ccc(F)c1Cl [Crizotinib] (first compound max 10 µM, 7x7, partner max 10 µM) | -0.0192 | -0.0355 | -0.0505 | -0.0296 | -0.0207 | -0.0302 | -0.0655 | -0.0205 | -0.0124 | -0.037 | -0.0421 | -0.0113 | 0.0284 | 0.0028
CC(=O)c1c(C)c2cnc(Nc3ccc(N4CCNCC4)cn3)nc2n(C2CCCC2)c1=O [Palbociclib] + CC1(C)CCC(CN2CCN(c3ccc(C(=O)NS(=O)(=O)c4ccc(NCC5CCOCC5)c([N+](=O)[O-])c4)c(Oc4cnc5[nH]ccc5c4)c3)CC2)=C(c2ccc(Cl)cc2)C1 [Venetoclax] (first compound max 10 µM, 7x7, partner max 1 µM) | 0.0118 | -0.0225 | 0.0792 | 0.0031 | -0.0086 | -0.054 | 0.0005 | -0.0586 | 0.0552 | 0.0021 | -0.0375 | 0.0953 | -0.0489 | -0.0128
CC(=O)c1c(C)c2cnc(Nc3ccc(N4CCNCC4)cn3)nc2n(C2CCCC2)c1=O [Palbociclib] + Cc1c2c(nn1C)CSCc1cc(n(C)n1)CSc1cc(c3ccccc3c1)OCCCc1c(C(=O)O)n(C)c3c-2c(Cl)ccc13 [AZD5991] (first compound max 10 µM, 7x7, partner max 1 µM) | 0.0444 | -0.0278 | -0.0003 | -0.0193 | -0.0324 | -0.0527 | -0.0742 | -0.111 | -0.152 | -0.105 | -0.0677 | 0.0155 | -0.0901 | -0.0997
CC(=O)c1c(C)c2cnc(Nc3ccc(N4CCNCC4)cn3)nc2n(C2CCCC2)c1=O [Palbociclib] + Cn1cnc2c(F)c(Nc3ccc(Br)cc3Cl)c(C(=O)NOCCO)cc21 [Selumetinib] (first compound max 10 µM, 7x7, partner max 10 µM) | 0.008 | 0.127 | 0.0301 | 0.043 | -0.0805 | -0.0929 | 0.0492 | 0.0042 | -0.0354 | -0.0657 | -0.0362 | 0.0682 | -0.0975 | 0.0254
COc1cccc(OCCCN)c1-c1cc(Nc2cnc(C#N)cn2)n[nH]1 [Prexasertib] + CCc1c2c(nc3ccc(O)cc13)-c1cc3c(c(=O)n1C2)COC(=O)[C@]3(O)CC [SN-38] (first compound max 1 µM, 7x7, partner max 0.3 µM) | -0.0116 | 0.135 | -0.0732 | -0.0583 | 0.0624 | -0.092 | -0.0265 | 0.0161 | -0.0005 | -0.0594 | 0.0217 | -0.011 | -0.0648 | -0.0507
C[C@@H](c1ccc2nccn2c1)n1nnc2ncc(-c3cnn(C)c3)nc21 [Savolitinib] + CC1(C)CCC(CN2CCN(c3ccc(C(=O)NS(=O)(=O)c4ccc(NCC5CCOCC5)c([N+](=O)[O-])c4)c(Oc4cnc5[nH]ccc5c4)c3)CC2)=C(c2ccc(Cl)cc2)C1 [Venetoclax] (first compound max 1 µM, 7x7, partner max 1 µM) | -0.0186 | -0.0686 | 0.0364 | -0.0402 | -0.0329 | -0.0699 | -0.0432 | -0.0764 | -0.0824 | 0.0064 | -0.0848 | -0.0158 | -0.0801 | 0.0064
C[C@@H](c1ccc2nccn2c1)n1nnc2ncc(-c3cnn(C)c3)nc21 [Savolitinib] + Cc1c2c(nn1C)CSCc1cc(n(C)n1)CSc1cc(c3ccccc3c1)OCCCc1c(C(=O)O)n(C)c3c-2c(Cl)ccc13 [AZD5991] (first compound max 1 µM, 7x7, partner max 1 µM) | -0.0081 | -0.0428 | -0.0011 | -0.0272 | -0.0466 | -0.0347 | -0.0199 | -0.0751 | -0.0199 | -0.0404 | -0.0559 | 0.0026 | -0.0328 | -0.0493
Cn1cnc2c(F)c(Nc3ccc(Br)cc3Cl)c(C(=O)NOCCO)cc21 [Selumetinib] + C=CCn1c(=O)c2cnc(Nc3ccc(N4CCN(C)CC4)cc3)nc2n1-c1cccc(C(C)(C)O)n1 [AZD1775] (first compound max 10 µM, partner max 1 µM) | -0.07 | 0.0705 | -0.0564 | 0.0137 | -0.0192 | -0.0685 | -0.0482 | -0.0715 | -0.0702 | -0.0026 | -0.0164 | 0.0121 | -0.0144 | -0.0366
Cn1cnc2c(F)c(Nc3ccc(Br)cc3Cl)c(C(=O)NOCCO)cc21 [Selumetinib] + CC(C)n1c(=O)n(C)c2cnc3cc(F)c(-c4ccc(OCCCN5CCCCC5)nc4)cc3c21 [AZD1390] (first compound max 10 µM, 7x7, partner max 0.3 µM) | -0.0135 | -0.0626 | -0.0455 | -0.0238 | -0.0553 | -0.027 | -0.0582 | -0.112 | -0.0327 | -0.03 | -0.0275 | 0.0128 | 0.0028 | -0.0212
Cn1cnc2c(F)c(Nc3ccc(Br)cc3Cl)c(C(=O)NOCCO)cc21 [Selumetinib] + CCN(CCO)CCCOc1ccc2c(Nc3cc(CC(=O)Nc4cccc(F)c4)[nH]n3)ncnc2c1 [AZD2811] (first compound max 10 µM, 7x7, partner max 1 µM) | -0.0233 | 0.0295 | -0.0112 | 0.111 | 0.0505 | -0.0443 | 0.0191 | -0.0736 | 0.0547 | -0.0225 | 0.0258 | -0.0062 | -0.0096 | -0.0278
Cn1cnc2c(F)c(Nc3ccc(Br)cc3Cl)c(C(=O)NOCCO)cc21 [Selumetinib] + C[C@@H]1COCCN1C2=NC(=NC(=C2)C3(CC3)[S@](=N)(=O)C)C4=C5C=CNC5=NC=C4 [AZD6738] (first compound max 10 µM, 7x7, partner max 10 µM) | -0.0405 | 0.0348 | -0.0489 | -0.0047 | 0.0892 | 0.0075 | 0.0239 | 0.0065 | -0.0743 | -0.0149 | 0.0844 | 0.0151 | 0.0302 | -0.0553
CC(=O)Nc1cccc(-n2c(=O)n(C3CC3)c(=O)c3c(Nc4ccc(I)cc4F)n(C)c(=O)c(C)c32)c1 [Trametinib] + Cc1nc(-c2cn3c(n2)-c2ccc(-c4cnn(C(C)(C)C(N)=O)c4)cc2OCC3)n(C(C)C)n1 [Taselisib] (first compound max 1 µM, 7x7, partner max 10 µM) | 0.106 | 0.123 | 0.046 | 0.234 | 0.127 | 0.0848 | 0.0161 | 0.0681 | 0.12 | 0.0965 | 0.135 | 0.0467 | 0.116 | 0.137
